# According to ChEMBL document CHEMBL3885861, “Open TG-GATES”:
# Species on record: Rattus norvegicus
# Experiment: Open TG-GATES - Regimen: Single
# Type: toxicity, organism-based, Sprague-Dawley
# Set-up: regimen Single, gender Male, age 6 weeks
# Settings: in vivo, po, 20 mg/kg, route gavage, dose level High; for KIDNEY_L / KIDNEY_R / KIDNEY_TOTAL: tissue Kidney; for LIVER: tissue Liver; for ALP / ALT / AST / BUN / CRE / Ca / Cl / DBIL / GLC / IP / K / LDH / Na / PL / RALB / TBIL / TC / TG / TP / gamma-GTP: tissue Plasma
compound,measurement,setting,value
OCCN1CCN(CCCN2c3ccccc3Sc3ccc(C(F)(F)F)cc32)CC1 [FLUPHENAZINE],TERMINAL_BW,3 h,197.6 g
same,APTT,"3 h, tissue Blood",16.7 s
same,Bas,"3 h, tissue Blood",0%
same,Eos,"3 h, tissue Blood",0.8%
same,Fbg,"3 h, tissue Blood",205.4 mg/dL
same,Hb,"3 h, tissue Blood",12.9 g/dL
same,Lym,"3 h, tissue Blood",81.6%
same,MCH,"3 h, tissue Blood",21.4 pg
same,MCHC,"3 h, tissue Blood",33%
same,MCV,"3 h, tissue Blood",64.9 fL
same,Mono,"3 h, tissue Blood",4.4%
same,Neu,"3 h, tissue Blood",13.6%
same,PT,"3 h, tissue Blood",12.7 s
same,Plat,"3 h, tissue Blood",111.6 x10_4/uL
same,RBC,"3 h, tissue Blood",600.6 x10_4/ul
same,Ret,"3 h, tissue Blood",9.2%
same,WBC,"3 h, tissue Blood",64.5 x10_2/uL
same,KIDNEY_L,3 h,0.9 g
same,KIDNEY_R,3 h,0.9 g
same,KIDNEY_TOTAL,3 h,1.8 g
same,LIVER,3 h,9.2 g
same,ALP,3 h,781.6 IU/L
same,ALT,3 h,29.4 IU/L
same,AST,3 h,58 IU/L
same,BUN,3 h,10 mg/dL
same,CRE,3 h,0.5 mg/dL
same,Ca,3 h,10.7 mg/dL
same,Cl,3 h,107.4 meq/L
same,DBIL,3 h,0.006 mg/dL
same,GLC,3 h,225.6 mg/dL
same,IP,3 h,10.6 mg/dL
same,K,3 h,4.3 meq/L
same,LDH,3 h,145.2 IU/L
same,Na,3 h,139 meq/L
same,PL,3 h,132 mg/dL
same,RALB,3 h,3.7 g/dL
same,TBIL,3 h,0.3 mg/dL
same,TC,3 h,74.6 mg/dL
same,TG,3 h,33.8 mg/dL
same,TP,3 h,5.3 g/dL
same,gamma-GTP,3 h,1.6 IU/L
same,TERMINAL_BW,6 h,194.7 g
same,APTT,"6 h, tissue Blood",16.3 s
same,Bas,"6 h, tissue Blood",0%
same,Eos,"6 h, tissue Blood",0.4%
same,Fbg,"6 h, tissue Blood",205.8 mg/dL
same,Hb,"6 h, tissue Blood",12.8 g/dL
same,Lym,"6 h, tissue Blood",79%
same,MCH,"6 h, tissue Blood",21.9 pg
same,MCHC,"6 h, tissue Blood",32.9%
same,MCV,"6 h, tissue Blood",66.4 fL
same,Mono,"6 h, tissue Blood",6.4%
same,Neu,"6 h, tissue Blood",14.6%
same,PT,"6 h, tissue Blood",12.3 s
same,Plat,"6 h, tissue Blood",100.1 x10_4/uL
same,RBC,"6 h, tissue Blood",587.4 x10_4/ul
same,Ret,"6 h, tissue Blood",7.7%
same,WBC,"6 h, tissue Blood",59.6 x10_2/uL
same,KIDNEY_L,6 h,0.9 g
same,KIDNEY_R,6 h,0.9 g
same,KIDNEY_TOTAL,6 h,1.8 g
same,LIVER,6 h,8.8 g
same,ALP,6 h,839.8 IU/L
same,ALT,6 h,32 IU/L
same,AST,6 h,60.2 IU/L
same,BUN,6 h,10.6 mg/dL
same,CRE,6 h,0.5 mg/dL
same,Ca,6 h,10 mg/dL
same,Cl,6 h,107.4 meq/L
same,DBIL,6 h,0.018 mg/dL
same,GLC,6 h,215.2 mg/dL
same,IP,6 h,9.9 mg/dL
same,K,6 h,4.3 meq/L
same,LDH,6 h,171.6 IU/L
same,Na,6 h,138 meq/L
same,PL,6 h,125.6 mg/dL
same,RALB,6 h,3.5 g/dL
same,TBIL,6 h,0.4 mg/dL
same,TC,6 h,76 mg/dL
same,TG,6 h,16.6 mg/dL
same,TP,6 h,5.3 g/dL
same,gamma-GTP,6 h,1.2 IU/L
same,TERMINAL_BW,9 h,190.3 g
same,APTT,"9 h, tissue Blood",16.3 s
same,Bas,"9 h, tissue Blood",0%
same,Eos,"9 h, tissue Blood",0.2%
same,Fbg,"9 h, tissue Blood",214.8 mg/dL
same,Hb,"9 h, tissue Blood",12.7 g/dL
same,Lym,"9 h, tissue Blood",76.8%
same,MCH,"9 h, tissue Blood",21.3 pg
same,MCHC,"9 h, tissue Blood",33.1%
same,MCV,"9 h, tissue Blood",64.4 fL
same,Mono,"9 h, tissue Blood",6%
same,Neu,"9 h, tissue Blood",16.4%
same,PT,"9 h, tissue Blood",12.3 s
same,Plat,"9 h, tissue Blood",113.7 x10_4/uL
same,RBC,"9 h, tissue Blood",594 x10_4/ul
same,Ret,"9 h, tissue Blood",8.4%
same,WBC,"9 h, tissue Blood",72.7 x10_2/uL
same,KIDNEY_L,9 h,0.9 g
same,KIDNEY_R,9 h,0.9 g
same,KIDNEY_TOTAL,9 h,1.8 g
same,LIVER,9 h,7.8 g
same,ALP,9 h,741.8 IU/L
same,ALT,9 h,28.8 IU/L
same,AST,9 h,56 IU/L
same,BUN,9 h,9.6 mg/dL
same,CRE,9 h,0.5 mg/dL
same,Ca,9 h,10 mg/dL
same,Cl,9 h,107 meq/L
same,DBIL,9 h,0.03 mg/dL
same,GLC,9 h,197 mg/dL
same,IP,9 h,9.6 mg/dL
same,K,9 h,4.2 meq/L
same,LDH,9 h,157.8 IU/L
same,Na,9 h,139.2 meq/L
same,PL,9 h,135 mg/dL
same,RALB,9 h,3.7 g/dL
same,TBIL,9 h,0.3 mg/dL
same,TC,9 h,89 mg/dL
same,TG,9 h,11.2 mg/dL
same,TP,9 h,5.3 g/dL
same,gamma-GTP,9 h,1.2 IU/L
same,TERMINAL_BW,24 h,176 g
same,APTT,"24 h, tissue Blood",16.6 s
same,Bas,"24 h, tissue Blood",0%
same,Eos,"24 h, tissue Blood",0.2%
same,Fbg,"24 h, tissue Blood",206.6 mg/dL
same,Hb,"24 h, tissue Blood",14.7 g/dL
same,Ht,"24 h, tissue Blood",44.3%
same,Lym,"24 h, tissue Blood",81.2%
same,MCH,"24 h, tissue Blood",21.5 pg
same,MCHC,"24 h, tissue Blood",33.2%
same,MCV,"24 h, tissue Blood",64.8 fL
same,Mono,"24 h, tissue Blood",7.6%
same,Neu,"24 h, tissue Blood",10.6%
same,PT,"24 h, tissue Blood",12.2 s
same,Plat,"24 h, tissue Blood",125.2 x10_4/uL
same,RBC,"24 h, tissue Blood",684 x10_4/ul
same,Ret,"24 h, tissue Blood",6.6%
same,WBC,"24 h, tissue Blood",78.6 x10_2/uL
same,KIDNEY_L,24 h,0.9 g
same,KIDNEY_R,24 h,0.9 g
same,KIDNEY_TOTAL,24 h,1.8 g
same,LIVER,24 h,7.5 g
same,ALP,24 h,847.4 IU/L
same,ALT,24 h,27.8 IU/L
same,AST,24 h,69.6 IU/L
same,BUN,24 h,23.8 mg/dL
same,CRE,24 h,0.5 mg/dL
same,Ca,24 h,10.5 mg/dL
same,Cl,24 h,105.4 meq/L
same,DBIL,24 h,0.012 mg/dL
same,GLC,24 h,176 mg/dL
same,IP,24 h,9 mg/dL
same,K,24 h,4.9 meq/L
same,LDH,24 h,171.6 IU/L
same,Na,24 h,138.6 meq/L
same,PL,24 h,138.8 mg/dL
same,RALB,24 h,4.3 g/dL
same,TBIL,24 h,0.3 mg/dL
same,TC,24 h,87.6 mg/dL
same,TG,24 h,44.6 mg/dL
same,TP,24 h,6.1 g/dL
same,gamma-GTP,24 h,1.2 IU/L
